Data on one compound can be found in patent publication US20250243218A1, “NOVEL CARBAMATE COMPOUND AND USE THEREOF” (CHENGDU SHIBEIKANG BIOMEDICAL TECHNOLOGY CO., LTD., priority 2022, published 2025).

One may read the IC50 as the point on the concentration scale where inhibition reaches its midpoint. Broadly, the Cmax is the maximum level reached in the sampled fluid or tissue. The term Tmax denotes the time at which the peak concentration occurs.

Each structure is given as a SMILES string.

Data set [1] concerns ADP-induced platelet aggregation in rats. The data set can be described thus: Antiplatelet aggregation effect: ADP-induced platelet aggregation in PRP of rats after iv administration. Type of data set: in vivo. The settings on record: single iv at the same molar dose, blood 3 h after administration, ADP final 20 μM. From the text:
1. Test objective: Evaluation and comparison of the antiplatelet aggregation treatment effect of each compound after administration at the same molar amount
70 rats were randomly and evenly grouped into 7 groups, i.e., solvent control group, comparative example 1 (2-Oxo-clopidogrel) group, comparative example 2 (Vicagrel) group, compound 1 group, compound 2 group, compound 7 group and compound 8 group.
Rats were anesthetized by intraperitoneal injection of 1.5% sodium pentobarbital.
The anesthetized animals were transferred to an operating platform.
The rats were injected with anesthetic, and fixed on the operating platform in a supine position after the whole body of the rat became soft. After routine disinfection, the abdomen of the rat was incised along the abdominal midline using surgical scissors to open the abdominal cavity. The adipose tissue around the blood vessels was gently separated with a small forceps, and the excess adipose tissue covering the blood vessels was then wiped and removed with the cotton ball to make the blood vessels clearly visible (the abdominal aorta is located anterior to the vertebral column, and the abdominal vein appears thicker and darker in color than the abdominal aorta). The blood vessel was first fixed to prevent it from moving as much as possible. The left thumb and index finger fixed the adipose tissue and other organs on both sides of the blood vessel, while the ring finger pressed on the blood vessel at the upper end of the needle insertion point to lower the blood pressure, which can prevent blood spurting. The puncture needle was held with the right hand, with the bevel of the needle tip facing downward. The needle was inserted at an angle of about 30 degrees and advanced towards the heart to a suitable depth of about 5 mm. Once the blood had started to enter the needle via its tip, the other end of the blood collection needle was inserted into the vacuum tube. After the insertion of needle, the needle tip could be clamped with a hemostatic clip to prevent it from puncturing the blood vessel if the rat struggled due to insufficient anesthesia.
Three hours after the administration, the rats were anesthetized with sodium pentobarbital. Then blood was collected from the abdominal aorta, added with 3.8% sodium citrate (1:9) as an anticoagulant, mixed evenly and centrifuged at 200 g for 10 min. The supernatant was harvested to obtain the platelet-rich plasma (PRP), and the residual plasma was then centrifuged at 1600 g for 15 min to obtain the resulting supernatant as platelet-poor plasma (PPP).
Platelet aggregation rate was measured using a platelet aggregometer (model: Agg RAM, Helena, USA). The PPPs corresponding to the PRPs to be tested in each channel were first used to correct the light transmission, and the PPPs were removed after the correction. A cuvette added with 225 μl of PRP to be tested was then placed in each channel, and added with a stirrer, then ADP (with a final concentration of 20 μM). The platelet aggregometer immediately began to measure the platelet aggregation rate.

Data set [2] concerns the target T1, hERG potassium channel (Homo sapiens, UniProt Q12809).
T1 construct: expressed in transfected cells
The experiment in a line: cell-based. The settings on record: manual patch-clamp, stably overexpressed hERG channel; read-out: IC50 (μM), inhibition of cardiac hERG potassium channel. An excerpt: Test Example 2: Effect of Compounds on Current in Stably Overexpressed hERG Channel
(In general: In patch-clamp work, channel activity is measured electrically.)

Data set [3] in a line: Pharmacokinetic study in SD rats, 2-Oxo-clopidogrel in plasma by LC/MS/MS. The data set is classed as in vivo. The settings on record: 2-Oxo-clopidogrel in plasma, SD rats, single dose at same molar amount (Table 3: iv.; text: gavage), n = 6, mean ± SD. An excerpt: After being administered via single gavage at the same molar amount, the pharmacokinetic characteristics of each compound were investigated, and the main pharmacokinetic parameters were compared.
Each test compound was accurately weighed separately into a clean drug container, dissolved with appropriate amount of Solutol, shaken by vortex, added with purified water, ultrasonicated, and shaken by vortex until the compound was completely dissolved. All the formulations were freshly prepared on the day of administration.
Thirty healthy adult SD rats were administered via gavage.
Grouping and Fasting: SD rats were randomly grouped, with 6 rats per group, and administered with the corresponding compounds via gavage according to Table 3.
Sample Collection and Processing: 0.2 ml of blood was collected at different time points of before (0 h) and 5 min, 15 min, 30 min, 1 h, 2 h, 4 h, 8 h, and 24 h after the administration. After the anticoagulation with EDTA-K2 was completed, the blood was centrifuged at 4° C. for 5 min, and then the plasma was separated and stored at −80° C. for later measurement.
Measurement: The blood drug concentration of 2-Oxo-clopidogrel in all PK plasma samples was measured by LC/MS/MS method, and the pharmacokinetic parameters of individual compounds were calculated by using software WinNonlin 7.2.

Data set [4] relates to rabbit blood cells. The experiment in a line: In vitro hemolysis test. The data set is classed as cell-based. The settings on record: compound 2 injection, 2% red blood cell suspension. The procedure:
One Adult Big White-Eared Rabbit (Male)
(1) After the rabbit was anesthetized by injection of sodium pentobarbital via the marginal ear vein at about 30 mg/kg, about 20 ml of blood was collected from the heart into an appropriate container.
(2) A stirrer (or glass bead) was placed in the container, the blood was stirred at a slow speed for a few minutes to remove the fibrinogen in the blood so as to obtain defibrinated blood.
(3) About 10 times the amount of physiological saline was added, mixed evenly by shaking and aliquoted into centrifuge tubes. The tubes were centrifuged at 1000 to 2000 rpm for 15 min (the rotational speed and time for centrifugation could be adjusted according to the post-centrifugation situation due to the difference of centrifuge tubes in size), and then the supernatants were removed.
(5) The obtained red blood cells were prepared into a 2% suspension with physiological saline.

For data set [5], the system named is ear marginal vein of the rabbit. The data set can be described thus: Vascular irritation assay. The data set is classed as in vivo. The procedure: Four Japanese Big-Ear White Rabbit (about 2 kg), 2♀/2♂ (2 Female/2 Male)
The intra-individual left/right comparison method was used. The compound 2 low dose injection and compound 2 high dose injection groups were set, with 2 rabbits in each group, half male and half female. The compound 2 injections were administered by injection into the ear marginal veins of right ears of the rabbits in the compound 2 low and high dose groups, with administration doses of 2.5 mg/kg and 7.5 mg/kg, respectively, and with the same administration volume of 5 ml/kg; and the corresponding administration concentrations were 0.5 mg/ml and 1.5 mg/ml, respectively. The same administration volume of sodium chloride injection as the negative control was administered by injection into the ear marginal veins of left ears of the rabbits in the compound 2 low and high dose groups. The administration was carried out by intravenous infusion for 30 min. […] The administration was performed once daily for a total of 7 consecutive days.
At 72 h and at the end of a 14-day recovery period after the final administration, half of the animals in each group […] were sacrificed, respectively. Marginal ear tissue samples were cut from the injection site and the proximal end of the marginal ear vein respectively and collected. The injection sites were observed by naked eyes for the response conditions to irritation. The obtained tissues were fixed with 10% neutral formalin and conventionally sectioned for histopathological examination.

Data set [6] in a line: Solubility study. Type of data set: physicochemical. The settings on record: 25° C. to 30° C. The procedure:
Samples of the example compound 2 and comparative example 2 (Vicagrel) were accurately weighed. Under the condition of 25° C. to 30° C., 1 ml of physiological saline and 1 ml of a buffer (pH 1.2) were taken, and added with 10 mg of each compound, respectively. The compound 2 of the present disclosure had excellent solubility, which can satisfy the demand for the formulation into an injection with an effective concentration in clinical, while the solubility of the comparative example 2 was extremely low and it cannot satisfy the demand for injection, and the addition of additional solubilizer may pose potential safety risks.

A short description of data set [7]: Influencing factor test (high temperature, high humidity, light). Type of data set: physicochemical. The procedure: Test Methods: The samples of the compound 2 and comparative example 2 (Vicagrel) were weighed and placed in weighing bottles, respectively, and the weighing bottles were placed under the conditions of high temperature (60° C.), high humidity (RH 80%), and light (5000 Lux), respectively.

T1 sequence (Q12809 whole entry): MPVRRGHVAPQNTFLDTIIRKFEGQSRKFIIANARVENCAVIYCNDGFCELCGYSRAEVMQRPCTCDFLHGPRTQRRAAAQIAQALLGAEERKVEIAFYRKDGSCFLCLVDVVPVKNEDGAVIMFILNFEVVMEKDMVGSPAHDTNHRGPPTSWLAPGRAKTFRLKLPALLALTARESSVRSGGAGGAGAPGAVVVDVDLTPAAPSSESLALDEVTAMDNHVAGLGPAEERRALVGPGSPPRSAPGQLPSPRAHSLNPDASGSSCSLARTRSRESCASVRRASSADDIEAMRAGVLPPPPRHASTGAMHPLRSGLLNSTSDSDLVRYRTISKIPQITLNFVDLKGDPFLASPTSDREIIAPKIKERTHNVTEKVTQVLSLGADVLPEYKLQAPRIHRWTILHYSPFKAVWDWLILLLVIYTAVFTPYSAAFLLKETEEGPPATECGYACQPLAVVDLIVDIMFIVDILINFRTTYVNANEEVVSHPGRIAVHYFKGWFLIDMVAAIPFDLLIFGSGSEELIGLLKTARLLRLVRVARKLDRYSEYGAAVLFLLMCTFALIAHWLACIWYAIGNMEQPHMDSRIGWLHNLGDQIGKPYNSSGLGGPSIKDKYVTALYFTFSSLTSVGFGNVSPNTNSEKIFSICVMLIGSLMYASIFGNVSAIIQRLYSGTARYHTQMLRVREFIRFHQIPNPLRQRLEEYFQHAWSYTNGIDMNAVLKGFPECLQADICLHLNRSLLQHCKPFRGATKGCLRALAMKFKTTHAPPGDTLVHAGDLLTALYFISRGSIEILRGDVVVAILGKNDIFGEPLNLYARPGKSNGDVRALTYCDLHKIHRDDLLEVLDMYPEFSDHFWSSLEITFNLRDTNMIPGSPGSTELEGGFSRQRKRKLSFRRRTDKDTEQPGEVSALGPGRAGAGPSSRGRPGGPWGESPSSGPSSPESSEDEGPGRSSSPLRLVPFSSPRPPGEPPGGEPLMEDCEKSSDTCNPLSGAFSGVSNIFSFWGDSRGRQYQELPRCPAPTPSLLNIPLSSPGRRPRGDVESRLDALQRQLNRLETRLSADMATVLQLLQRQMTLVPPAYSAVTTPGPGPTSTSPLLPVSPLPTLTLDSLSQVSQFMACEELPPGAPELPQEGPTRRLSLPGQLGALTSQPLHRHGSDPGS

For the compound `COC(=O)[C@H](c1ccccc1Cl)N1CCc2sc(OC(=O)N3CCN(C)CC3)cc2C1.O=C(O)/C=C/C(=O)O` [Compound 2, (S)-5-(1-(2-chlorophenyl)-2-methoxy-2-oxyethyl)-4,5,6,7-tetrahydrothieno[3,2-c]pyridin-2-yl 4-methylpiperazine-1-carboxylate fumarate], the “Platelet aggregation rate (%)” value in data set [1] (solvent control 76.06 ± 3.29) is recorded as 21.18 ± 8.51 %. The “Platelet aggregation rate (%)” value in data set [1] (solvent control 76.06 ± 3.29, listed as compound 2) turned out to be 21.18±8.51%. Besides, the IC50 in data set [2] stood at 18.6 µM. In data set [3], the “AUC0-last (h*ng/ml)” value was 110.15 ± 32.62** h*ng/ml, the “Cmax” value turned out to be 76.82 ± 21.69 ng/mL, the “T1/2” value is given as 1.98 ± 0.25 h and the “Tmax” value is listed as 0.45 ± 0.13 h. For the same compound, in data set [4] (high concentration 2.5 mg/ml), the “hemolysis of rabbit blood cells” value is recorded as “neither the compound 2 injection at low concentration (0.5 mg/ml) nor the compound 2 injection at high concentration (2.5 mg/ml) caused hemolysis”. The “hemolysis of rabbit blood cells” value in data set [4] (low concentration 0.5 mg/ml) is “neither the compound 2 injection at low concentration (0.5 mg/ml) nor the compound 2 injection at high concentration (2.5 mg/ml) caused hemolysis”. For the same compound, the “vascular irritation effect on the ear marginal vein of the rabbit (overall determination)” value in data set [5] (high concentration 1.5 mg/ml) is given as “no vascular irritation effect”. Besides, the “observation of ear marginal vein on the administered side at day 2 of the recovery period” value in data set [5] (high concentration 1.5 mg/ml, naked eyes) was “congestion of the ear marginal vein on the administered side was observed by naked eyes”. For the same compound, in data set [5] (low concentration 0.5 mg/ml, observed by naked eyes), the “vascular irritation effect on the ear marginal vein of the rabbit (overall)” value was “no vascular irritation effect”. In addition, the “Solubility, pH 1.2 buffer” value in data set [6] (10 mg compound added to 1 ml buffer (pH 1.2)) is recorded as over 10 mg. Besides, the “Solubility, Physiological saline(1 ml)” value in data set [6] (10 mg compound added to 1 ml physiological saline) is reported as over 10 mg. Further, the “change in content, appearance and shape” value in data set [7] (10 days under each of high temperature, high humidity and light) was “little change in content and no obvious change in appearance and shape”. For the same compound, the “content, Day 0” value in data set [7] (Day 0) is reported as 98.39%. Also, the “content, High humidity (Day 10)” value in data set [7] (high humidity (RH 80%), 10 days) is 97.83%. The “content, High temperature (Day 10)” value in data set [7] (high temperature (60° C.), 10 days) was 97.84%. For the same compound, in data set [7] (light (5000 Lux), 10 days), the “content, Light (Day 10)” value is on record as 96.09%.
